The record followed here is patent US11795170B2 (Genentech, Inc., priority 2016, dated 2023).

In experiment [1] the target is T1, isolated recombinant JAK2 kinase domain (Homo sapiens, UniProt O60674).
T1 construct: The activity of the isolated recombinant JAK1 and JAK2 kinase domain was measured
In words: JAK2 enzyme assay (Caliper LabChip, peptide phosphorylation). Conditions: 0.2 nM JAK2, 25 μM ATP, 22° C., 30 minutes; Morrison tight binding model. The format is biochemical. As for the experimental part: (§1) JAK Enzyme Assays were Carried Out as Follows:
(§2) The activity of the isolated recombinant JAK1 and JAK2 kinase domain was measured by monitoring phosphorylation of a peptide derived from JAK3 (Val-Ala-Leu-Val-Asp-Gly-Tyr-Phe-Arg-Leu-Thr-Thr, fluorescently labeled on the N-terminus with 5-carboxyfluorescein) using the Caliper LabChip® technology (Caliper Life Sciences, Hopkinton, Mass.). To determine inhibition constants (K), compounds were diluted serially in DMSO and added to 50 μL kinase reactions containing purified enzyme (1.5 nM JAK1, or 0.2 nM JAK2), 100 mM HEPES buffer (pH 7.2), 0.015% Brij-35, 1.5 μM peptide substrate, ATP (25 μM), 10 mM MgCl2, 4 mM DTT at a final DMSO concentration of 2%. Reactions were incubated at 22° C. in 384-well polypropylene microtiter plates for 30 minutes and then stopped by addition of 25 μL of an EDTA containing solution (100 mM HEPES buffer (pH 7.2), 0.015% Brij-35, 150 mM EDTA), resulting in a final EDTA concentration of 50 mM. After termination of the kinase reaction, the proportion of phosphorylated product was determined as a fraction of total peptide substrate using the Caliper LabChip® 3000 according to the manufacturer's specifications. Ki values were then determined using the Morrison tight binding model (Morrison, J. F., Biochim. Biophys. Acta. 185:269-296 (1969); William, J. W. and Morrison, J. F., Meth. Enzymol., 63:437-467 (1979)) modified for ATP-competitive inhibition [Ki=Ki,app/(1+[ATP]/Km,app)].

Experiment [2] has as its target T2, isolated recombinant JAK1 kinase domain (Homo sapiens, UniProt P23458).
T2 construct: The activity of the isolated recombinant JAK1 and JAK2 kinase domain was measured
In words: JAK1 enzyme assay (Caliper LabChip, peptide phosphorylation). The format is biochemical. The following applies: 1.5 nM JAK1, 25 μM ATP, 22° C., 30 minutes; Morrison tight binding model. As for the experimental part:
as §1, §2

Experiment [3] deals with JAK1-dependent STAT6 phosphorylation downstream of IL-13 stimulation. In words: JAK1 pathway assay in BEAS-2B cells (IL-13 stimulated pSTAT6, MSD). The format is cell-based. Conditions: BEAS-2B human bronchial epithelial cells, 1 hr compound incubation, IL-13 for 15 min; read-out: IL13-pSTAT6 BEAS2B IC50. As for the experimental part:
JAK1 Pathway Assay in Cell Lines was Carried Out as Follows:
Inhibitor potency (EC50) was determined in cell-based assays designed to measure JAK1 dependent STAT phosphorylation. As noted above, inhibition of IL-4, IL-13, and IL-9 signalling by blocking the Jak/Stat signaling pathway can alleviate asthmatic symptoms in pre-clinical lung inflammation models (Mathew et al., 2001, J Exp Med 193(9): 1087-1096; Kudlacz et. al., 2008, Eur J. Pharmacol 582(1-3): 154-161).
In one assay approach, TF-1 human erythroleukemia cells obtained from the American Type Culture Collection (ATCC; Manassas, Va.) were used to measure JAK1-dependent STAT6 phosphorylation downstream of IL-13 stimulation. Prior to use in the assays, TF-1 cells were starved of GM-CSF overnight in OptiMEM medium (Life Technologies, Grand Island, N.Y.) supplemented with 0.5% charcoal/dextran stripped fetal bovine serum (FBS), 0.1 mM non-essential amino acids (NEAA), and 1 mM sodium pyruvate. The assays were run in 384-well plates in serum-free OptiMEM medium using 300,000 cells per well. In a second assay approach, BEAS-2B human bronchial epithelial cells obtained from ATCC were plated at 100,000 cells per well of a 96-well plate one day prior to the experiment. The BEAS-2B assay was run in complete growth medium (bronchial epithelial basal medium plus bulletkit; Lonza; Basel, Switzerland).
Test compounds were serially diluted 1:2 in DMSO and then diluted 1:50 in medium just before use. Diluted compounds were added to the cells, for a final DMSO concentration of 0.2%, and incubated for 30 min (for the TF-1 assay) or 1 hr (for the BEAS-2B assay) at 37° C. Then, cells were stimulated with human recombinant cytokine at their respective EC90 concentrations, as previously determined for each individual lot. Cells were stimulated with IL-13 (R&D Systems, Minneapolis, Minn.) for 15 min at 37° C. The TF-1 cell reactions were stopped by the direct addition of 10× lysis buffer (Cell Signaling Technologies, Danvers, Mass.), whereas the BEAS-2B cell incubations were halted by the removal of medium and addition of 1× lysis buffer. The resultant samples were frozen in the plates at −80° C. Compound mediated inhibition of STAT6 phosphorylation was measured in the cell lysates using MesoScale Discovery (MSD) technology (Gaithersburg, Md.). EC50 values were determined as the concentration of compound required for 50% inhibition of STAT phosphorylation relative to that measured for the DMSO control.

Each structure is given as a SMILES string.

T2 sequence (P23458 875-1153): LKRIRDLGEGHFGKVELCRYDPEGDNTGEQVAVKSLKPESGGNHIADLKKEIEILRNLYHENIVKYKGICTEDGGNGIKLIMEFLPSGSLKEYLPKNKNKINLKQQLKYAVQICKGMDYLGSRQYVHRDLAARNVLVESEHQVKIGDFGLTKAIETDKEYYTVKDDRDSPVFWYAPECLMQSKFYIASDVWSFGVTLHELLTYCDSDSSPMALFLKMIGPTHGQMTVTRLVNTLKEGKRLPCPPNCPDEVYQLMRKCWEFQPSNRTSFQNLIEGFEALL
T1 sequence (O60674 849-1124): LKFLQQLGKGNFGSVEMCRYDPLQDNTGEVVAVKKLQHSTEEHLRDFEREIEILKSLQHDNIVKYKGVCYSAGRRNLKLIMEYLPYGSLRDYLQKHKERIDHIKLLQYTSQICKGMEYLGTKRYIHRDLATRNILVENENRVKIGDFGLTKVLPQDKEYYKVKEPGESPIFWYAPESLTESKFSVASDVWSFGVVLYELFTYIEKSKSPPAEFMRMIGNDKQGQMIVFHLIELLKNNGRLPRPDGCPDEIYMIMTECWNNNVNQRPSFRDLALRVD

As a reminder, the Ki is a dissociation constant, usually derived from enzyme kinetics or from competition with a known ligand. What is called IC50 is the concentration needed to halve the response being measured. With `CN(C1CCN(C(=O)Cn2cc(NC(=O)c3cnc4cccnn34)c(-c3cc(Cl)ccc3OC(F)F)n2)CC1)C1COC1` [Example 1, N-[3-[5-chloro-2-(difluoromethoxy)phenyl]-1-(2-[4-[methyl(oxetan-3-yl)amino]piperidin-1-yl]-2-oxoethyl)-1H-pyrazol-4-yl]imidazo[1,2-b]pyridazine-3-carboxamide], the Ki in experiment [1] is 960 pM; in experiment [2], 330 pM. Besides, in experiment [3], the IC50 was 74000 pM.

Consider `O=C(Nc1c[nH]nc1-c1cc(Cl)ccc1OC(F)F)c1cnc2ccc(Cl)nn12` [Example 2, 6-chloro-N-[3-[5-chloro-2-(difluoromethoxy)phenyl]-1H-pyrazol-4-yl]imidazo[1,2-b]pyridazine-3-carboxamide], for which the Ki in experiment [1] turned out to be 200 pM; in experiment [2], 1500 pM. Moreover, the IC50 in experiment [3] turned out to be 16000 pM.

Take `C#Cc1ccc2ncc(C(=O)Nc3c[nH]nc3-c3cc(Cl)ccc3OC(F)F)n2n1` [Example 3, N-[3-[5-chloro-2-(difluoromethoxy)phenyl]-1H-pyrazol-4-yl]-6-ethynyl-imidazo[1,2-b]pyridazine-3-carboxamide]: the values for the inhibition constant (Ki) in experiment [1] and in experiment [2] were 76 pM and 290 pM, respectively. In addition, the IC50 in experiment [3] stood at 21000 pM.

Consider `O=C(Nc1cn(CC(=O)N2CCC(N3CCOCC3)CC2)nc1-c1cc(Cl)ccc1OC(F)F)c1cnc2cccnn12` [Example 4, N-[3-[5-chloro-2-(difluoromethoxy)phenyl]-1-[2-[4-(morpholin-4-yl)piperidin-1-yl]-2-oxoethyl]-1H-pyrazol-4-yl]imidazo[1,2-b]pyridazine-3-carboxamide], for which the Ki turned out to be 1200 pM in experiment [1] and 360 pM in experiment [2]. Besides, the IC50 in experiment [3] came to 20000 pM.

For the molecule `N#CC1(CNC2CCN(C(=O)Cn3cc(NC(=O)c4cnc5cccnn45)c(-c4cc(Cl)ccc4OC(F)F)n3)CC2)CC1` [Example 5, N-[3-[5-chloro-2-(difluoromethoxy)phenyl]-1-[2-(4-[[(1-cyanocyclopropyl)-methyl]amino]piperidin-1-yl)-2-oxoethyl]-1H-pyrazol-4-yl]imidazo[1,2-b]pyridazine-3-carboxamide], the Ki in experiment [1] worked out at 2400 pM; in experiment [2] it was 560 pM. In addition, the concentration for half-maximal inhibition (IC50) in experiment [3] was 110000 pM.

On to `O=C(Nc1c[nH]nc1-c1cc(Cl)ccc1OC(F)F)c1cnc2cccnn12` [Example 6, N-[3-[5-chloro-2-(difluoromelhoxy)phenyl]-1H-pyrazol-4-yl]imidazo[1,2-b]pyridazine-3-carboxamide], for which the Ki in experiment [1] worked out at 63 pM; in experiment [2], 180 pM. In addition, the IC50 in experiment [3] came out at 4500 pM.

With `NCCn1cc(NC(=O)c2cnc3cccnn23)c(-c2cc(Cl)ccc2OC(F)F)n1` [Example 7, N-[1-(2-aminoethyl)-3-[5-chloro-2-(difluoromethoxy)phenyl]-1H-pyrazol-4-yl]imidazo[1,2-b]pyridazine-3-carboxamide], the Ki worked out at 530 pM in experiment [1] and 720 pM in experiment [2]. Further, the 50% inhibitory concentration (IC50) in experiment [3] turned out to be 34000 pM.

As to `Cn1cc(NC(=O)c2cnc3cccnn23)c(-c2cc(Cl)ccc2OC(F)F)n1` [Example 8, N-[3-[5-chloro-2-(difluoromethoxy)phenyl]-1-methyl-1H-pyrazol-4-yl]imidazo[1,2-b]pyridazine-3-carboxamide], the Ki in experiment [1] stood at 140 pM; in experiment [2], 280 pM. Also, the half-maximal inhibitory concentration (IC50) in experiment [3] was 6000 pM.

Consider `O=C(Nc1c[nH]nc1-c1cc(SC2CC2)ccc1OC(F)F)c1cnc2cccnn12` [Example 9, N-[3-[5-(cyclopropylsulfanyl)-2-(difluoromethoxy)phenyl]-1H-pyrazol-4-yl]imidazo[1,2-b]pyridazine-3-carboxamide], for which the inhibition constant Ki in experiment [1] turned out to be 120 pM; in experiment [2], 290 pM. In experiment [3], the IC50 is 11000 pM.

As to `CC(C)Sc1ccc(OC(F)F)c(-c2n[nH]cc2NC(=O)c2cnc3cccnn23)c1` [Example 10, N-[3-[2-(difluoromethoxy)-5-(propan-2-ylsulfanyl)phenyl]-1H-pyrazol-4-yl]imidazo[1,2-b]pyridazine-3-carboxamide], the Ki in experiment [1] was determined as 260 pM; in experiment [2] it was 410 pM. For the same molecule, the concentration for half-maximal inhibition (IC50) in experiment [3] is 7500 pM.

Regarding `CSc1ccc(OC(F)F)c(-c2nn(CC(=O)N3CCC(CN4CCN(CC(=O)N(C)C)CC4)CC3)cc2NC(=O)c2cnc3cccnn23)c1` [Example 11], the Ki in experiment [1] was 690 pM; in experiment [2], 510 pM. Moreover, in experiment [3], the half-inhibitory concentration (IC50) turned out to be 200000 pM.

For the molecule `O=C(Nc1cn(CC(=O)N2CCN(CCN3CCOCC3)CC2)nc1-c1cc(Cl)ccc1OC(F)F)c1cnc2cccnn12` [Example 12, N-[3-[5-chloro-2-(difluoromethoxy)phenyl]-1-(2-[4-[2-(morpholin-4-yl)ethyl]piperazin-1-yl]-2-oxoethyl)-1H-pyrazol-4-yl]imidazo[1,2-b]pyridazine-3-carboxamide], the values for the inhibitory constant (Ki) in experiment [1] and in experiment [2] were 2000 pM and 650 pM, respectively. Besides, the IC50 in experiment [3] came out at 150000 pM.

Regarding `CSc1ccc(OC(F)F)c(-c2n[nH]cc2NC(=O)c2cnc3cccnn23)c1` [Example 13, N-[3-[2-(difluoromethoxy)-5-(methylsulfanyl)phenyl]-1H-pyrazol-4-yl]imidazo[1,2-b]pyridazine-3-carboxamide], the inhibition constant (Ki) in experiment [1] was determined as 50 pM; in experiment [2] it was 110 pM. For the same molecule, in experiment [3], the IC50 was 2900 pM.
